Reference: ChEMBL document CHEMBL3507680, “University of Dundee, Gates Library screen for HepG2 cell viability”

Assay: Human HepG2 cell viability assay in 384 well format
Assay type: toxicity, cell-based
Set-up: dose 125 nL, time 70.5 hour; cytotoxicity at 70.5 h: concentration not given beside the values
Conditions: HepG2 cells, read-out: Inhibition

SMILES | cytotoxicity at 70.5 h [%]
Cc1cc(C)n(CCN2CCN(C(=O)c3ccccc3Br)CC2)n1 | -2.29
Cc1cc(C)n(CCN2CCN(C(=O)c3cc4ccccc4o3)CC2)n1 | -0.14
CCOCC(=O)NCC(Cc1cccc(F)c1)N1CCCCC1=O (configuration not stated) | 30
Cn1cc(C(=O)NCC(Cc2cccc(F)c2)N2CCCCC2=O)nn1 (configuration not stated) | -14.8
O=C1NCCN1C(CNS(=O)(=O)C1CC1)Cc1cccc(F)c1 (configuration not stated) | -13.5
CC(=O)NCC(Cc1cccc(F)c1)n1cccc1 (configuration not stated) | -5.86
N#Cc1cccnc1N1CCCC(CO)(CCOc2ccccc2)C1 (configuration not stated) | -7.83
COc1ccccc1OC1CN(C(=O)Cc2c(C)nc(C)[nH]c2=O)C1 | -2.42
Cc1cc(C)n(C2CN(c3ncnc4c3CCNCC4)C2)n1 | -9
Cc1[nH]c2c(C)ccc(C)c2c1CC(=O)NCCCNc1cccnc1 | -9.64
Cc1ccc(CCNC(=O)Cn2nc(C)n(Cc3ccccc3)c2=O)s1 | 3.12
COCc1cc(NCCc2ccccn2)n2nccc2n1 | 29
COc1cccc(C(=O)N2CCN(C(=O)CCn3ccnc3)CC2)c1 | -5.33
CC(C)c1nc(CN(C)Cc2ccc(F)cc2)cs1 | -22.4
COc1ccc(OCc2nc(C(=O)N3C[C@H](O)[C@@H](N(C)C)C3)co2)cc1 | -4.57
CN(C)CCNC(=O)c1cc2n(n1)CCN(C(=O)c1ccc[nH]1)C2 | -7.1
CN(CC1CCCN1C)c1nccc(C2CCCC2)n1 (configuration not stated) | 6.3
CC(C)n1cnnc1CN(C)C(=O)c1cnn2ccccc12 | 4.09
Cn1ncc2c(N3CCN(CCO)CC3)nc(C3CCCC3)nc21 | -14.2

SMILES | cytotoxicity at 70.5 h [%]
CCOC(=O)N1CCN(C(=O)C(CC)n2cccn2)CC1 (configuration not stated) | 5.86
CSc1nccc(N2CCC3(CCCN(CC4CC4)C3)C2)n1 (configuration not stated) | -3.08
O=C1CCCCN1CCC(=O)N1CCCCC1c1ccc(F)cc1 (configuration not stated) | -6.63
Cc1ccccc1C(=O)N1C[C@@H]2[C@@H](CN(C)CCc3ccccn3)[C@@H]2C1 | -8.54
O=C(N1CCC(Oc2ccncc2)CC1)C1(c2ccc(F)cc2)CC1 | -3.22
CN1C(=O)C2(CCN(c3nccc4occc34)CC2)c2ccccc21 | 9.71
COc1ccc(-n2ncc(C(C)NCc3cnc(SC)nc3)c2C)cc1 (configuration not stated) | -3.63
O=C(CC1=CCCCC1)N1CCC(Cn2cc(CCO)nn2)CC1 | -11.5
COCCN1CCN(C(C(=O)O)c2ccc(SC)cc2)CC1 (configuration not stated) | -5.21
CCCn1ncc(CN2CCCCC2CCCOC)c1C (configuration not stated) | -2.59
Cc1nc(C(C)NC(=O)COc2ccc(F)cc2)n[nH]1 (configuration not stated) | -7.22
COCc1cc(NCC(F)(F)F)n2nccc2n1 | -12.3
CCCC(=O)Nc1cccc(C(=O)N(C)CCCC2CCCO2)c1 (configuration not stated) | 2.48
CC(Cn1cccn1)n1cnc2cccc(Cl)c2c1=O (configuration not stated) | 7.81
CCN(Cc1cnn(C)c1)C[C@H]1CC[C@@H](Cc2ccc(OC)nc2)O1 | -8.42
COc1ccc(Oc2ncccc2F)cc1CN1CCCC1 | 3.51
CN(CC(=O)N1CC(C)(C)[C@](O)(C2CC2)C1)Cc1cccnc1 | -3.42
O=C(O)Cc1cccc(-n2ccnc2-c2ccc(F)c(Cl)c2)c1 | -0.808
CC(C)n1cnnc1CN(C)C(=O)c1ccccc1N1CCOCC1 | 9.11

SMILES | cytotoxicity at 70.5 h [%]
O=C(c1cccnc1SC/C=C/c1ccccc1)N1CCOCC(O)C1 (configuration not stated) | 1.08
CCCn1cc(S(=O)(=O)N[C@H]2CN(CC(N)=O)C[C@@H]2C2CC2)cn1 | -9.29
Cc1cccnc1[C@H](C)NC(=O)Cc1cc2c(cc1Cl)OCCO2 | 32.1
O=c1cc(C2CCNCC2)nc(CCCc2ccccc2)[nH]1 | -3.39
CC(=O)c1cc(C(=O)N2CCC3(CC2)Nc2ccccc2NC3=O)cs1 | -7.09
Cc1nc2c(c(NC3CCN(Cc4cccnc4)CC3)n1)CCNCC2 | -18.8
COCCN(C)C[C@@H]1CN(C(=O)c2c(C)cccc2OC)C[C@@H]1CO | -4.17
Cc1ccc2nc(CN3CCCC3c3cccnc3)cc(O)c2c1 (configuration not stated) | -2.21
Cc1noc(CN2CC(=O)N(C)c3ccccc3C2=O)n1 | -8.97
Nc1nc2c(c(NC3CCCC3)n1)CCN(C(=O)C1CCOC1)CC2 (configuration not stated) | 11.4
O=C(CCc1ccccc1)C1CCCN(C(=O)c2cncc(Cl)c2)C1 (configuration not stated) | -25.5
CCc1cnc(N)nc1NCc1ccc(OC)c(OC)c1 | -1.08
Cc1ccc(C(=O)O)c(N2CC(C)(C)[C@@](C)(O)C2)n1 | -10.6
Cc1cc(N2CCOC(C(F)(F)F)C2)nc(-c2ccccc2)n1 (configuration not stated) | -24.8
Cc1ccsc1C(CNC(=O)c1cc(=O)c2ccccc2[nH]1)N(C)C (configuration not stated) | -9.06
O=C(NCc1nc[nH]n1)c1cc(COc2ccccc2F)[nH]n1 | -3.89
O=C(O)[C@@H]1CN(CCOCCO)C[C@H]1c1ccccc1 | 30
COCCN(Cc1nc2c(cnn2C)c(=O)[nH]1)C(C)COC (configuration not stated) | -7.19
CCCNC(=O)CN1CCC(NC(=O)c2cc(CC)ccc2O)CC1 | -6.46
